Data published in patent US9540412B2, “Methods of preparing targeted aptamer prodrugs” (Albert Einstein College of Medicine, Inc., priority 2010, dated 2017).
Like-named read-outs stand apart in the source and are kept apart here.

B1: C1: 2′F modified internalizing RNA selected against Min6B1 cells, SEQ ID NO:11 (nucleic acid)
chain: GGGAGGUGAAUGGUUCUACGAUAUUGCGAAUCCUCUAUCCGUUCUAAACGCUUUAUGAUUUCGCAUAGUCCUUACAUGCGAGAUGACCACCGUAAUUGAAUUAAAUGCCCGCCAUGACCAG
modifications: 2'-fluoro modified RNA library, positions of 2'-F not given here

Key:
HeLa cells = test: HeLa cell viability (alamarBlue) after aptamer-prodrug treatment; type: cell-based, human; conditions: 50 nM aptamer, 4 days, serum free media (DMEM containing 1% Nutridoma), FIG. 3
Description: To test the feasibility of this strategy for delivery of nucleoside analog drugs, two different anti-hTfR aptamers (designated min8 and min9.1) were extended with a 24 nucleotide extension. A complementary DNA oligonucleotide (FdC-oligo) was then synthesized to this region in which all cytosine residues had been replaced with the nucleoside analog 5F-deoxycytidine (FdC), a potent inhibitor of methyltransferase activity (Beumer et al. 2008). The aptamer-produgs were then assembled by mixing the drug oligo at a 1:1 molar ratio with one of two different minized anti-hTfR aptamers, min8, min9.1, or a non-targeting control aptamer (cntrl) in PBS and thermally equilibrated by heating at 70° C. Aptamer function following hybridization was confirmed by FACS using a FITC labeled version of the oligonucleotide.
The ability of the assembled anti-hTfR aptamer-prodrugs to deliver therapeutic cargo to cells was tested on HeLa cells. To avoid potential complications from degradation of the FdC-oligo (which is DNA and thus readily susceptible to degradation), these assays were performed in serum free media (DMEM containing 1% Nutridoma). Cells were incubated with increasing concentrations of either free drug, anti-hTfR aptamer-prodrugs or controls for 4 days, after which cell viability was assayed using the chromogenic substrate alamarBlue. […]

Min6B1 cells [1] = test: Flow cytometry cell labeling of Min6B1 cells; type: cell-based, mouse; conditions: streptavidin phycoerytherin
LNCaP cells = conditions: unconjugated toxin; read-out: IC50 (toxicity); cited from earlier work
Jurkat cells = test: Jurkat cell growth inhibition / toxicity (FIG. 4B); type: cell-based, human; conditions: 500 nM, regular media (RPMI+10% FBS), 3' inverted thymidine
Description: (§1) In addition to adding drugs to aptamers by hybridization, a series of aptamer-prodrugs has been synthesized using a DNA aptamer (scgc8) which targets human protein tyrosine kinase-7. […] To stabilize these aptamers against serum nucleases, the oligonucleotides were generated bearing a 3′ inverted thymidine residue which dramatically stabilizes the serum half-life of DNA molecules to ˜20 hrs (Dass et al. 2002).

[2] = target: T1, human protein tyrosine kinase-7 (Homo sapiens, UniProt Q13308); test: Binding of fluorescently labeled scgc8 aptamer prodrugs to target cells (FIG. 4A); conditions: fluorescently labeled aptamers
T1 construct: This protein is overexpressed on a variety of leukemia cell lines; endogenous in cells; host or cells: 'target cells'
T1 sequence (Q13308 31-1070): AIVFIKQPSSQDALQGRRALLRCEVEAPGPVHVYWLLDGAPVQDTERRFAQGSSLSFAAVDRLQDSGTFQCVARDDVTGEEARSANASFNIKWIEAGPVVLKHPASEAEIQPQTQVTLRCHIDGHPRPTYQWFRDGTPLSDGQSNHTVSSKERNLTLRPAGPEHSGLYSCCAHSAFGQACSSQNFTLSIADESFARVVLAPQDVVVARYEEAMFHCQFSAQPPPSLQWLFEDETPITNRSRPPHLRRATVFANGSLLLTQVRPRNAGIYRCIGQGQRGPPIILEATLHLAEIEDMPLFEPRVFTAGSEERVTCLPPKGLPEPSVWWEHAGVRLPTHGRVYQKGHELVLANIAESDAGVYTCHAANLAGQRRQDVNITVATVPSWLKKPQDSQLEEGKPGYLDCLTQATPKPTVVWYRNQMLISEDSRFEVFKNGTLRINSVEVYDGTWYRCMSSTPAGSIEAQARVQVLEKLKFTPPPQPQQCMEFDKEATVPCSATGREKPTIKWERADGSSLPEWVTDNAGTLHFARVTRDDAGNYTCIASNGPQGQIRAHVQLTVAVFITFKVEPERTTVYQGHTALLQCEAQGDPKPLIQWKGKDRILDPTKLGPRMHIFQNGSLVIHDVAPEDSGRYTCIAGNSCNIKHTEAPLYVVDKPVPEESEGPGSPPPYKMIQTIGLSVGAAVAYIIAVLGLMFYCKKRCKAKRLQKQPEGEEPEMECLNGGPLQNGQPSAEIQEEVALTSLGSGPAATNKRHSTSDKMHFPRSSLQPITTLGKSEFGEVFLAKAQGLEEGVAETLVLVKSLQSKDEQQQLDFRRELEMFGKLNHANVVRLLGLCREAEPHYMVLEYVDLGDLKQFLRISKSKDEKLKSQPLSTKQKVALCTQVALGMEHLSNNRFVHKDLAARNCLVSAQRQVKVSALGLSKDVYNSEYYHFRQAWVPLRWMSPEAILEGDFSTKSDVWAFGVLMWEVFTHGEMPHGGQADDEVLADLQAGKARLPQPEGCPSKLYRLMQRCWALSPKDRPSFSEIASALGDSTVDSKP
Description: as §1
A ssDNA aptamer that targets protein kinase 7 was selected by Shanggun et al (J Proteome Res, 2008 7:2133). The aptamer, scgc.8, was adapted for the delivery of floxuridine (5FdU) by site specific incorporation this nucleoside analog drug during chemical synthesis. Aptamer prodrugs were synthesized bearing a 5′ fluorescein molecule and a 3′ inverted thymiding residue to enhance serum stability. The sequence of the parental aptamer and the aptamer prodrugs are: Scgc.8 […] (SEQ ID NO:8); Scgc.8-5 AU*CU*AACU*[…]*U*AGA (SEQ ID NO:9); Scgc.8-9 AU*CU*AACU*GCU*GCGCCGCCGGGAAAAU*ACU*GU*ACGGU*U*AGA (SEQ ID NO:10). U* denotes 5FdU.

[3] = test system: mouse (fibroblasts, brain endothelial, skeletal and myocardial muscles) and human (cervical and prostate cancer) cell lines; test: Specificity studies on additional mouse and human cell lines; type: cell-based
Min6B1 cells [4] = test: Internalization into Min6B1 cells (fluorescence microscopy); type: cell-based, mouse
Description: Aptamers that target and are internalized by beta cells were identified by performing an internalization selection against the glucose-responsive immortalized mouse beta cell line Min6B1. As in the selection against the transferrin receptor described above, in order to drive the selection towards molecules that are internalized, following incubation with the RNA library, target cells were washed extensively and treated with trypsin and ribonuclease to remove any surface bound RNA. Following recovery of total RNA, aptamers were amplified, transcribed and the process was repeated.
When similar experiments were conducted with the unselected library, little or no fluorescent signal was observed.

| Molecule | cell labeling (Min6B1 cells [1]) | inhibition of cell growth / toxicity (Jurkat cells) | binding to target cells [2] | further results |
| --- | --- | --- | --- | --- |
| Nc1nc(=O)n([C@H]2C[C@H](O)[C@@H](CO)O2)cc1F [free drug, 5F-deoxycytidine] | – | – | – | cell viability (HeLa cells): loss of cell viability |
| C1.min: minimized core of C1, SEQ ID NO:12 (UGCGAAUCCUCUAUCCGUUCUAAACGCUUUAUGAUUUCGCA; listed as RNA, chemistry not given here) | labeled cells as efficiently as the full length clone | – | – | – |
| gelonin | – | – | – | IC50 (LNCaP cells): ~5 µM |
| scgc8-5: scgc8 with 5 of 9 thymidine residues replaced with floxuridine, SEQ ID NO:9 (AUCUAACUGCTGCGCCGCCGGGAAAATACTGTACGGUUAGA; floxuridine substitutions, chemistry not fully specified) | – | considerable lower levels of toxicity | still bound target cells better than a scrambled control sequence (cntrl-9) but less efficiently than the non-drug containing aptamer (scgc8) | – |
| scgc8-9: scgc8 with all 9 thymidine residues replaced with floxuridine, SEQ ID NO:10 (AUCUAACUGCTGCGCCGCCGGGAAAATACTGTACGGUUAGA; all 9 thymidines replaced with floxuridine, chemistry not fully specified) | – | inhibited cell growth as efficiently as free drug alone | still bound target cells better than a scrambled control sequence (cntrl-9) but less efficiently than the non-drug containing aptamer (scgc8) | – |
| B1 | significant cell labeling | – | – | cell specificity of targeting / internalization [3]: targets several unrelated cell lines across different species; cell specificity of targeting / internalization ([3]; listed as dominant clone): not specific for beta cells; internalization (Min6B1 cells [4]): not only binds to, but is also internalized by this cell type; internalization (Min6B1 cells [4]; listed as dominant clone): readily internalized by Min6B1 cells |
